Test results taken from PMC7344947, “Phytochemicals and Enzyme Inhibitory Capacities of the Methanolic Extracts from the Italian Apple Cultivar Mela Rosa dei Monti Sibillini” (Pharmaceuticals, 2020).

Molecular target: T1, α-Glucosidase from Saccharomyces cerevisiae (Saccharomyces cerevisiae, UniProt P53341)
T1 construct: purchased Sigma-Aldrich (Madrid, Spain)
Test: α-Glucosidase inhibition assay (pNPG, absorbance 405 nm)
Assay type: biochemical
Conditions: 1 mg/mL
Protocol: α-Glucosidase inhibition assay was performed following the previous method. Each 96-well microplate contained: 50 μL apple extract or the reference at different concentration and 100 μL of α-GLU (1U/mL) in phosphate buffer (pH 6.9). After 10 min, 50 μL of PNPG (50 μL) were added and incubated for 20 min at 37 °C. The absorbance was read at 405 nm. The percentage inhibition of α-glucosidase was calculated using the following formula:% inhibition = [(Abscontrol − AbsSample)/Abscontrol] × 100(1)

T1 sequence (P53341 whole entry): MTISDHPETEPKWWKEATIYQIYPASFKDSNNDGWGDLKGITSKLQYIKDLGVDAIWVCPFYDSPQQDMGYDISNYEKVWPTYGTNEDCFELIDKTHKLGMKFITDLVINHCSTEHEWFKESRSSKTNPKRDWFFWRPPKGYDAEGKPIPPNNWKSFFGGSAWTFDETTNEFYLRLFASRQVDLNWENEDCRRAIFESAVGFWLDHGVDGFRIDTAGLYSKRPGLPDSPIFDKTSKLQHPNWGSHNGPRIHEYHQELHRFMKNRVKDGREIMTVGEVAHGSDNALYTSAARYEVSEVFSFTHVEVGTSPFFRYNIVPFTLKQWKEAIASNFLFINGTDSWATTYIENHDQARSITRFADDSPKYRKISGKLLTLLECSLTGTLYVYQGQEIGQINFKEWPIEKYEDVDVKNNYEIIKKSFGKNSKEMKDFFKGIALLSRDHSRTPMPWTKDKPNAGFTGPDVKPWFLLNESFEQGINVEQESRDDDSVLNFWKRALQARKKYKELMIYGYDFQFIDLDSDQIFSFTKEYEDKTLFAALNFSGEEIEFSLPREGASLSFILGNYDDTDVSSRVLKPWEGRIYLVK

C[C@H]1O[C@H](O[C@H]2[C@H](O)[C@@H](O)[C@@H](O[C@H]3[C@H](O)[C@@H](O)C(O)O[C@@H]3CO)O[C@@H]2CO)[C@H](O)[C@@H](O)[C@@H]1N[C@H]1C=C(CO)[C@@H](O)[C@H](O)[C@H]1O (stereo partly shown) [Acarbose]
inhibition at 1000 µg/mL: 100%
